Measurements: article PMC6272548, “Synthesis and Antiplatelet Activity of Antithrombotic Thiourea Compounds: Biological and Structure-Activity Relationship Studies” (Molecules, 2015)
Like-named read-outs stand apart in the source and are kept apart here.

Assays:
[1] = test system: human platelets; experiment: Platelet aggregation of human citrated platelet-rich plasma induced by arachidonic acid (turbidimetric); assay type: cell-based; settings: for inhibition at 100 µM: healthy human platelets, read-out: Inhibition of AA-induced platelet aggregation; for Antiplatelet activity (in words): AA-induced platelet aggregation
Description: The human blood samples were obtained from adult volunteers, who abstained from the use of drugs or other substances that could interfere with the experiment for at least 15 days prior. […] The platelet rich (PRP) and poor (PPP) plasma were prepared by differential centrifugation and platelet aggregation was monitored using the turbidimetric method described by Born and Cross with an aggregometer 4-Pack® (Helena Laboratories, Beaumount, TX, USA). Different concentrations of the synthetic derivatives and the vehicle (DMSO 1%) were pre-incubated for 2 min before addition of the agonists (500 μM arachidonic acid and 5 μg/mL collagen). The platelet aggregation tests were performed in triplicate and the data were statistically analyzed.

[2] = test system: Salmonella typhimurium; experiment: Reverse mutagenesis to histidine prototrophy (Ames test), spot test; settings: without metabolic activation; 10 µM, 100 µM and 500 µM
Description: This assay was performed as described by Maron and Ames, using the histidine Salmonella typhimurium auxotroph mutant strains TA97, TA98, TA100 and the […] TA102 (Table 5).

[3] = test system: TXB2 production; experiment: Measurement of plasma TXB2 levels by EIA in platelet-rich plasma; assay type: cell-based; settings: for inhibition at 100 µM: Homo sapiens, Platelet; for Platelet Inhibition of TXB2 (%): 100 µM, human platelet-rich plasma
Description: Thromboxane B2 (TXB2), a stable TXA2 metabolite, is widely used as a prognostic risk marker of platelet activation in cardiovascular disease, which is closely related to COX-1 and Thromboxane Synthetase activity. Thus, the plasma levels of this metabolite were measured using an enzyme immunoassay (EIA) as described in the Experimental Section.
Plasma samples containing 100 μM of each thiourea with antiplatelet activity were used to determine the concentrations of thromboxane B2, an index of in vitro COX-1 activity. Briefly, 10 μL of arachidonic acid (500 μM) were added to platelet-rich plasma samples containing each active derivative (100 μM) under stir conditions. After five minutes the suspensions were mixed with 3 μL Indomethacin (10 mM) stop-solution. By sonication for 15 min, platelets were disrupted, and the resulting homogenates were centrifuged at 2000 g for 10 min to allow complete release of TXB2. Plasma levels of TXB2 were measured in duplicate by competitive immunoassay using commercially available kits from EIA Cayman (TXB2 EIA Kit, Cayman Chemical Co, Ann Arbor, MI, USA) according to the manufacturer’s instructions. A threshold of 25.75 ng/mL was defined as control plasma levels of TXB2 after platelet disrupture.

[4] = test system: PGE2 production; experiment: Measurement of plasma PGE2 levels by EIA in platelet-rich plasma; assay type: cell-based; settings: human platelet-rich plasma
Description: The stable direct metabolite of PGE2, 13,14-dihydro-15-keto-Prostaglandin E2, is a known marker of the COX-1 activity. By the measurement of total levels of this PGE2 metabolite in human platelet-rich plasma, we evaluated the feasibility of antiplatelet N,N'-disubstituted thioureas to inhibit COX-1 activity in healthy platelets (Table 2).
Plasma samples containing 100 μM of each thiourea with antiplatelet activity were used to determine the concentrations of […], an index of in vitro COX-1 activity. Briefly, ozagrel (3 μL, 100 μM) were added to stop TXS activity and the aggregation were triggered with 10 μL of arachidonic acid (500 μM) in PRP samples containing each active derivative (100 μM) under stir conditions. After five minutes the suspensions were mixed with indomethacin (3 μL, 10 mM) stop-solution. By sonication for 1 min, platelets were disrupted and purification step were performed according to the manufacturer’s instructions (Cayman Chemical Co.). Plasma levels of PGE2 were measured in duplicate by competitive immunoassay using commercially available kits for EIA (PGE2 EIA Kit, Cayman Chemical Co.) according to the manufacturer’s instructions. A threshold of 25.75 ng/mL was defined as control plasma levels of PGE2 after platelet disrupture.

[5] = test system: COX-1; set-up: method as in PMID 22263894; settings: read-out: IC50 of non-anionic COX-1 inhibitors; cited from earlier work
[6] = test system: erythrocytes; experiment: Hemolysis assay (erythrocyte lysis); assay type: cell-based, human; settings: 3 h incubation; derivatives and ASA at 100 μM, TRITON at 1%
Description: Healthy erythrocytes were washed three times with PBS (pH 7.4) by centrifugation and suspended in the same buffer. All derivatives were incubated with the erythrocyte suspension for 3 h at 37 °C. The release of hemoglobin was determined by monitoring the optical density of the supernatant at 540 nm. The experiments were performed in triplicate and complete hemolysis (positive control) was determined using 1% Triton X-100. Hemolysis less than 10% indicated good hemocompatibility and non-toxicity of the molecules tested.

[7] = Homo sapiens, Platelet, read-out: IC50, concentration that caused 50% inhibition of platelet aggregation, arachidonic acid-induced (500 μM), human platelet-rich plasma
[8] = read-out: IC50, concentration that caused 50% inhibition of platelet aggregation, arachidonic acid-induced (500 μM), human platelet-rich plasma

Molecule | IC50 [1, 7] [µM] | Ames Test S. typhimurium TA97 [2] | Ames Test S. typhimurium TA98 [2] | Ames Test S. typhimurium TA100 [2] | Ames Test S. typhimurium TA102 [2] | melting point [°C] | inhibition at 100 µM [3] [%] | inhibition at 100 µM ([1]; Platelet) [%] | inhibition at 100 µM [4] [%] | Antiplatelet activity (in words) [1] | IC50 [1, 8] [µM] | Platelet Inhibition of TXB2 (%) [3] [%] | IC50 [5] [µM] | Hemolysis [6] [%]
CNC(=S)Nc1ccccc1 [3a, N-Methyl-N'-phenylthiourea] | 308 ± 10.4 | - | - | - | - |  |  |  |  |  |  |  |  | 
S=C(Nc1ccccc1)NC1CCCCC1 [3b, N-Cyclohexyl-N'-phenylthiourea] | 153 ± 4.5 | - | - | - | - | 149 to 151 |  |  |  |  |  |  |  | 
OCCNC(=S)Nc1ccccc1 [3c, N-(2-Hydroxyethyl)-N'-phenylthiourea] | 170 ± 17.3 | - | - | - | - | 139 to 141 |  |  |  |  |  |  |  | 
CCN(CC)C(=S)Nc1ccccc1 [3d, N-N-Diethyl-N'-phenylthiourea] | 29.1 | - | - | - | - |  | 74.2 ± 10.2 | 96 to 98 | 25.6 ± 5.9 |  |  |  |  | 
COc1cc(NC(=S)Nc2ccccc2)cc(OC)c1OC [3e, N-Phenyl-N'-(3,4,5-trimethoxyphenyl)thiourea] | 251 ± 3.5 | - | - | - | - | 164 to 166 |  |  |  | lack antiplatelet activity |  |  |  | 
S=C(Nc1ccccc1)Nc1ccc2c(c1)OCO2 [3f, N-3,4-Methylenedioxyphenyl-N'-phenylthiourea] | 322 ± 8.9 | - | - | - | - | 140 to 142 |  |  |  | lack antiplatelet activity |  |  |  | 
S=C(Nc1ccccc1)Nc1cccc2ccccc12 [3g, N-α-Naphthyl-N'-phenylthiourea] |  | - | - | - | - |  |  |  |  |  | 142 ± 9 |  |  | 
CC(C)NC(=S)NCc1ccccc1 [3h, N-Benzyl-N'-isopropylthiourea] | 214 ± 10.2 | - | - | - | - | 121 to 123 |  |  |  |  |  |  |  | 
CCN(CC)C(=S)NCc1ccccc1 [3i, N-Benzyl-N',N'-diethylthiourea] |  | - | - | - | - |  | 74.7 ± 5.5 | 96 to 98 | 21.1 ± 5 |  | 86.2 |  |  | 
S=C(NCc1ccccc1)Nc1ccc2c(c1)OCO2 [3j, N-Benzyl-N'-(3,4-methylenedioxyphenyl)thiourea] | 155 ± 3.6 | - | - | - | - | 114 to 116 |  |  |  |  |  |  |  | 
CC(C)NC(=S)NCCc1ccccc1 [3k, N-Isopropyl-N'-(2-phenethyl)thiourea] | 188 ± 10.7 | - | - | - | - | 126 to 128 |  |  |  |  |  |  |  | 
CCCCNC(=S)NCCc1ccccc1 [3l, N-Butyl-N'-(2-phenethyl)thiourea] | 153 ± 15 | - | - | - | - | 61 to 63 |  |  |  |  |  |  |  | 
CCN(CC)C(S)=NCCc1ccccc1 [3m, N,N-diethyl-N'-(2-phenethyl)thiourea] | 34.5 | - | - | - | - | 72 to 74 | 91 | 96 to 98 | 28.2 ± 5.9 |  | 34.5 ± 0.9 | 91.2 ± 0.0 |  | 
S=C(NCCc1ccccc1)NC1CCCCC1 [3n, N-Cyclohexyl-N'-(2-phenethyl)thiourea] | 277 ± 42.9 | - | - | - | - | 109 to 111 |  |  |  |  |  |  |  | 
S=C(NCCc1ccccc1)Nc1cccc2ccccc12 [3o, N-(α-Naphthyl)-N'-(2-phenethyl)thiourea] | 157 ± 19.9 | - | - | - | - | 155 to 157 |  |  |  |  |  |  |  | 
S=C(NCCc1ccccc1)Nc1ccc2c(c1)OCO2 [3p, N-(3,4-Methylenedioxyphenyl)-N'-(2-phenethyl)thiourea] | 84.6 | - | - | - | - | 126 to 128 | 88 | 96 to 98 | 7.9 ± 7.9 |  | 84.5 | 88.1 ± 5.5 |  | 
COc1cc(NC(=S)Nc2ccc3c(c2)OCO3)cc(OC)c1OC [3q, N-(3,4-Methylenedioxyphenyl)-N'-(3,4,5-trimethoxyphenyl)thiourea] | 290 ± 21.9 | - | - | - | - | 142 to 144 |  |  |  | lack antiplatelet activity |  |  |  | 
COc1ccc2c(c1)c(CC(=O)O)c(C)n2C(=O)c1ccc(Cl)cc1 [Indomethacin, reference compound] |  |  |  |  |  |  | 99.8 |  | 28 ± 1.6 |  |  |  |  | 
O=C(O)/C=C/c1ccc(Cn2ccnc2)cc1 [Ozagrel, reference compound] |  |  |  |  |  |  | 98 ± 2.8 |  |  |  |  |  |  | 
Nc1ccc(NC(=O)c2ccc(C(F)(F)F)cc2)nc1 [TFAP] |  |  |  |  |  |  |  |  |  |  |  |  | 0.8 | 
Triton X-100 |  |  |  |  |  |  |  |  |  |  |  |  |  | 100
